Measured values published in US10414811B2, “Protease-resistant lipidated GLP-1 analogs” (MEDIMMUNE LIMITED, priority 2015, dated 2019).
Where two headings read alike, the source gives them in different places. Numbered stars: 1 amine (or outer) side, 2 acyl side, 3 side chain; on linkers, the order of the positions; unused ones are H or OH. Square brackets hold non-standard residues; d marks the D form. Side chains are listed from the residue outwards. Peptide text beside a SMILES is read from it. * marks the point of attachment. γGlu = O=C(O)[C@H](CCC(=O)[*:2])N[*:1]; Palmitoyl = CCCCCCCCCCCCCCCC(=O)*; αMeF = C[C@](N)(Cc1ccccc1)C(=O)O; αMeK = C[C@](N)(CCCCN)C(=O)O; Lauroyl = CCCCCCCCCCCC(=O)*; αMeS = C[C@](N)(CO)C(=O)O; AEEA = NCCOCCOCC(=O)O; Aib = CC(C)(N)C(=O)O

How the values were obtained:
Type in all cases: cell-based
[1] = biological target: T1, human GLP-1 receptor (GLP-1R) (Homo sapiens, UniProt P43220); assay: cAMP assay, human GLP-1R cells
T1 construct: expressed in transfected cells
T1 sequence (P43220 24-463): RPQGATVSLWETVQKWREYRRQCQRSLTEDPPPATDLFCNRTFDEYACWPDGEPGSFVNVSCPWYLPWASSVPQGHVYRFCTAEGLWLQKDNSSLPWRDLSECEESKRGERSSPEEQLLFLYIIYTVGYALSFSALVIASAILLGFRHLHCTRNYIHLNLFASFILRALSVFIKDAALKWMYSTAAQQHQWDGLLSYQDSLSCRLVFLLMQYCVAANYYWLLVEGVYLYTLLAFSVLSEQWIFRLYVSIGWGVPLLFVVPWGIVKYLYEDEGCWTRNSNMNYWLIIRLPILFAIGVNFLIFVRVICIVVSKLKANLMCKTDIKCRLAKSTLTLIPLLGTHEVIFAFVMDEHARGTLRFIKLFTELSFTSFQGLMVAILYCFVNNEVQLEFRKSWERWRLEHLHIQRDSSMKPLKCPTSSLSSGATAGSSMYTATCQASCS
How it was run: (§1)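 Peptide-stimulated cAMP measured by two-step HTRF after a 30 min room-temperature incubation with receptor-expressing cells (hGLP-1R, hGIPR at 1×10^5 cells/ml; hGCGR at 2×10^5 cells/ml). Duplicate dilutions; EC50 from 4-parameter logistic fit of % Delta F.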

[2] = biological target: T2, human glucagon receptor (GCGR) (Homo sapiens, UniProt P47871); assay: cAMP assay, human GCGR cells
T2 construct: expressed in transfected cells
T2 sequence (P47871 26-477): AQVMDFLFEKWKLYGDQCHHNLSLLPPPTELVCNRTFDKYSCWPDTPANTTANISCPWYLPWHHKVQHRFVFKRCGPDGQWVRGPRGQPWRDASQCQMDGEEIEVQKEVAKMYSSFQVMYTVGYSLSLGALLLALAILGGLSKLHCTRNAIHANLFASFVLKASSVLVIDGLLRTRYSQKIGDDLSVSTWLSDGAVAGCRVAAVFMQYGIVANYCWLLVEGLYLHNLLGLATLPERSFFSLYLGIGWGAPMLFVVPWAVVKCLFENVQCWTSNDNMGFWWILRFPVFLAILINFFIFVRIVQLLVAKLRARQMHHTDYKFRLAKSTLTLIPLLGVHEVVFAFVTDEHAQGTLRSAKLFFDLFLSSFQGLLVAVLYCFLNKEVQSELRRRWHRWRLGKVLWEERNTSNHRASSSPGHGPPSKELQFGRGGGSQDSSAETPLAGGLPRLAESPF
How it was run: as §1

[3] = biological target: T3, human glucose-dependent insulinotropic peptide receptor (GIPR) (Homo sapiens, UniProt P48546); assay: cAMP assay, human GIPR cells
T3 construct: expressed in transfected cells
T3 sequence (P48546 22-466): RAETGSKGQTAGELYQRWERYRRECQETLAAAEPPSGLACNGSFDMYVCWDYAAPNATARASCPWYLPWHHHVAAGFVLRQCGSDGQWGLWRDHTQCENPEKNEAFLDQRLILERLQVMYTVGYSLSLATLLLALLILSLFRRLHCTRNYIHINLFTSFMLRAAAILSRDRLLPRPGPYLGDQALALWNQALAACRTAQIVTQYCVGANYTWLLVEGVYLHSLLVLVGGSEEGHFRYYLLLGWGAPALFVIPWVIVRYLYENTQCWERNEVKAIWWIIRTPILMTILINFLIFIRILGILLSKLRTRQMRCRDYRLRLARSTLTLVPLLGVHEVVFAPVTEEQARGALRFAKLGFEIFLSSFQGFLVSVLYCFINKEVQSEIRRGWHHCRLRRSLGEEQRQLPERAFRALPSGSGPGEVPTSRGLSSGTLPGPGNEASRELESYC
How it was run: as §1

[4] = cAMP assay, first determination (n1), read-out: Primary assay EC50 GLP-1R n1
[5] = cAMP assay, second determination (n2), read-out: Primary assay EC50 GLP-1R n2
[6] = mean of n1 and n2, read-out: Mean pM GLP-1R
[7] = cAMP assay, first determination (n1), read-out: Primary assay EC50 Gluc-R (n1)
[8] = cAMP assay, second determination (n2), read-out: Primary assay EC50 Gluc-R (n2)
[9] = cAMP assay, first determination (n1), read-out: Primary assay EC50 GIP-R (n1)
[10] = cAMP assay, second determination (n2), read-out: Primary assay EC50 GIP-R (n2)
[11] = tris-lipidated peptides, mean of n1 and n2, read-out: Primary assay EC50 Mean pM GLP-1R
[12] = tris-lipidated peptides, replicate n1, read-out: Primary assay EC50 GLP-1R n1
[13] = tris-lipidated peptides, replicate n2, read-out: Primary assay EC50 GLP-1R n2
[14] = tris-lipidated peptides, first replicate, read-out: Primary assay EC50 Gluc-R (n1)
[15] = tris-lipidated peptides, first replicate, read-out: Primary assay EC50 GIP-R (n1)

Structure (SMILES)	EC50 [1, 4] [pM]	EC50 [1, 5] [pM]	EC50 [1, 6] [pM]	EC50 [2, 7] [nM]	EC50 [2, 8] [nM]	EC50 [3, 9] [nM]	EC50 [3, 10] [nM]	EC50 [1, 11] [pM]	EC50 [1, 12] [pM]	EC50 [1, 13] [pM]	EC50 [2, 14] [nM]	EC50 [3, 15] [nM]
CCCCCCCCCCCCCCCCCC(=O)N[C@@H](CCC(=O)N[C@@H](CCC(=O)N[C@@H](CCC(=O)NCCCC[C@H](NC(=O)[C@H](C)NC(=O)[C@H](C)NC(=O)[C@H](CCC(=O)O)NC(=O)CNC(=O)[C@H](CCC(=O)O)NC(=O)[C@H](CC(C)C)NC(=O)[C@](C)(Cc1ccccc1)NC(=O)[C@H](CO)NC(=O)[C@](C)(CO)NC(=O)[C@@H](NC(=O)[C@H](CC(=O)O)NC(=O)[C@H](CO)NC(=O)[C@@H](NC(=O)[C@](C)(Cc1ccccc1)NC(=O)[C@H](CO)NC(=O)CNC(=O)[C@H](CCC(=O)O)NC(=O)C(C)(C)NC(=O)[C@@H](N)Cc1c[nH]cn1)[C@@H](C)O)C(C)C)C(=O)N[C@@H](CCC(=O)O)C(=O)N[C@@](C)(Cc1ccccc1)C(=O)N[C@H](C(=O)N[C@@H](C)C(=O)N[C@@](C)(Cc1ccccc1)C(=O)N[C@H](C(=O)N[C@H](C(=O)N[C@@](C)(CCCCN)C(=O)NCC(=O)NCC(N)=O)C(C)C)C(C)C)[C@@H](C)CC)C(=O)O)C(=O)O)C(=O)O [compound 148]	16	8.7	12.1	≥ 26	≥ 26	≥ 26	≥ 26					
CCCCCCCCCCCC(=O)N[C@@H](CCC(=O)NCCOCCOCC(=O)NCCOCCOCC(=O)NCCCC[C@H](NC(=O)[C@H](CCC(=O)O)NC(=O)CNC(=O)[C@H](CCC(=O)O)NC(=O)[C@H](CC(C)C)NC(=O)[C@H](CCCCNC(=O)COCCOCCNC(=O)COCCOCCNC(=O)CC[C@H](NC(=O)CCCCCCCCCCC)C(=O)O)NC(=O)[C@H](CO)NC(=O)[C@](C)(CO)NC(=O)[C@@H](NC(=O)[C@H](CC(=O)O)NC(=O)[C@H](CO)NC(=O)[C@@H](NC(=O)[C@](C)(Cc1ccccc1)NC(=O)[C@H](CO)NC(=O)CNC(=O)[C@H](CCC(=O)O)NC(=O)C(C)(C)NC(=O)[C@@H](N)Cc1c[nH]cn1)[C@@H](C)O)C(C)C)C(=O)N[C@@H](C)C(=O)N[C@@](C)(CCCCN)C(=O)N[C@@H](CCC(=O)O)C(=O)N[C@@H](Cc1ccccc1)C(=O)N[C@H](C(=O)N[C@@H](CCCCNC(=O)COCCOCCNC(=O)COCCOCCNC(=O)CC[C@H](NC(=O)CCCCCCCCCCC)C(=O)O)C(=O)N[C@@H](Cc1ccccc1)C(=O)N[C@H](C(=O)N[C@H](C(=O)N[C@@H](CCC(=O)O)C(=O)NCC(=O)NCC(N)=O)C(C)C)C(C)C)[C@@H](C)CC)C(=O)O [compound 449] (H-H[Aib]EGS[αMeF]TSDV[αMeS]SK([AEEA-AEEA-γGlu-Lauroyl])LEGEK([AEEA-AEEA-γGlu-Lauroyl])A[αMeK]EFIK([AEEA-AEEA-γGlu-Lauroyl])FVVEGG-NH2; N-terminus assumed)								246	216	276	19.7	19.7
CC[C@H](C)[C@H](NC(=O)[C@](C)(Cc1ccccc1)NC(=O)[C@H](CCC(=O)O)NC(=O)[C@H](CCCCNC(=O)COCCOCCNC(=O)COCCOCCNC(=O)CC[C@H](NC(=O)CCCCCCCCCCCCCCCCC(=O)O)C(=O)O)NC(=O)[C@H](C)NC(=O)[C@H](C)NC(=O)[C@H](CCC(=O)O)NC(=O)CNC(=O)[C@H](CCC(=O)O)NC(=O)[C@H](CC(C)C)NC(=O)[C@](C)(Cc1ccccc1)NC(=O)[C@H](CO)NC(=O)[C@H](CO)NC(=O)[C@@H](NC(=O)[C@H](CC(=O)O)NC(=O)[C@H](CO)NC(=O)[C@@H](NC(=O)[C@](C)(Cc1ccccc1)NC(=O)[C@H](CO)NC(=O)CNC(=O)[C@H](CCC(=O)O)NC(=O)C(C)(C)NC(=O)[C@@H](N)Cc1c[nH]cn1)[C@@H](C)O)C(C)C)C(=O)N[C@@H](C)C(=O)N[C@@](C)(Cc1ccccc1)C(=O)N[C@H](C(=O)N[C@H](C(=O)N[C@@H](CCCCN)C(=O)NCC(=O)NCC(N)=O)C(C)C)C(C)C [compound 40]	1800	570	1170	≥ 85	≥ 26	≥ 85	≥ 26					
CC[C@H](C)[C@H](NC(=O)[C@](C)(Cc1ccccc1)NC(=O)[C@H](CCC(=O)O)NC(=O)[C@](C)(CCCCN)NC(=O)[C@H](C)NC(=O)[C@H](C)NC(=O)[C@H](CCC(=O)O)NC(=O)CNC(=O)[C@H](CCC(=O)O)NC(=O)[C@H](CC(C)C)NC(=O)[C@](C)(Cc1ccccc1)NC(=O)[C@H](CO)NC(=O)[C@](C)(CO)NC(=O)[C@@H](NC(=O)[C@H](CC(=O)O)NC(=O)[C@H](CO)NC(=O)[C@@H](NC(=O)[C@H](CCCCNC(=O)COCCOCCNC(=O)COCCOCCNC(=O)CC[C@H](NC(=O)CCCCCCCCCCCCCCCCC(=O)O)C(=O)O)NC(=O)[C@H](CO)NC(=O)CNC(=O)[C@H](CCC(=O)O)NC(=O)C(C)(C)NC(=O)[C@@H](N)Cc1c[nH]cn1)[C@@H](C)O)C(C)C)C(=O)N[C@@H](C)C(=O)N[C@@](C)(Cc1ccccc1)C(=O)N[C@H](C(=O)N[C@H](C(=O)N[C@@](C)(CCCCN)C(=O)NCC(=O)NCC(N)=O)C(C)C)C(C)C [compound 123]	4900	4430	4660	≥ 26	≥ 25.6	≥ 26	≥ 25.6					
CCCCCCCCCCCC(=O)N[C@@H](CCC(=O)NCCOCCOCC(=O)NCCOCCOCC(=O)NCCCC[C@H](NC(=O)[C@H](CCC(=O)O)NC(=O)[C@H](CC(C)C)NC(=O)[C@H](Cc1ccc(O)cc1)NC(=O)[C@H](CO)NC(=O)[C@H](CO)NC(=O)[C@H](CCCCNC(=O)COCCOCCNC(=O)COCCOCCNC(=O)CC[C@H](NC(=O)CCCCCCCCCCC)C(=O)O)NC(=O)[C@H](CC(=O)O)NC(=O)[C@H](CO)NC(=O)[C@@H](NC(=O)[C@](C)(Cc1ccccc1)NC(=O)[C@H](CO)NC(=O)CNC(=O)[C@H](CCC(=O)O)NC(=O)C(C)(C)NC(=O)[C@@H](N)Cc1c[nH]cn1)[C@@H](C)O)C(=O)N[C@@H](CCC(=O)O)C(=O)N[C@@H](C)C(=O)N[C@@H](C)C(=O)N[C@@](C)(CCCCN)C(=O)N[C@@H](CCC(=O)O)C(=O)N[C@@H](Cc1ccccc1)C(=O)N[C@H](C(=O)N[C@@H](C)C(=O)N[C@@H](Cc1ccccc1)C(=O)N[C@@H](CCCCNC(=O)COCCOCCNC(=O)COCCOCCNC(=O)CC[C@H](NC(=O)CCCCCCCCCCC)C(=O)O)C(=O)N[C@H](C(=O)N[C@@H](CCC(=O)O)C(=O)NCC(=O)NCC(N)=O)C(C)C)[C@@H](C)CC)C(=O)O [compound 471] (H-H[Aib]EGS[αMeF]TSDK([AEEA-AEEA-γGlu-Lauroyl])SSYLEK([AEEA-AEEA-γGlu-Lauroyl])EAA[αMeK]EFIAFK([AEEA-AEEA-γGlu-Lauroyl])VEGG-NH2)								374	277	470	≥ 19.6	≥ 19.6
CCCCCCCCCCCCCCCC(=O)N[C@@H](CCC(=O)NCCCC[C@H](NC(=O)CNC(=O)[C@](C)(CCCCN)NC(=O)[C@@H](NC(=O)[C@@H](NC(=O)[C@](C)(Cc1ccccc1)NC(=O)[C@H](C)NC(=O)[C@@H](NC(=O)[C@](C)(Cc1ccccc1)NC(=O)[C@H](CCC(=O)O)NC(=O)[C@](C)(CCCCN)NC(=O)[C@H](C)NC(=O)[C@H](C)NC(=O)[C@H](CCC(=O)O)NC(=O)CNC(=O)[C@H](CCC(=O)O)NC(=O)[C@H](CC(C)C)NC(=O)[C@](C)(Cc1ccccc1)NC(=O)[C@H](CO)NC(=O)[C@](C)(CO)NC(=O)[C@@H](NC(=O)[C@H](CC(=O)O)NC(=O)[C@H](CO)NC(=O)[C@@H](NC(=O)[C@](C)(Cc1ccccc1)NC(=O)[C@H](CO)NC(=O)CNC(=O)[C@H](CCC(=O)O)NC(=O)C(C)(C)NC(=O)[C@@H](N)Cc1c[nH]cn1)[C@@H](C)O)C(C)C)[C@@H](C)CC)C(C)C)C(C)C)C(N)=O)C(=O)O [compound 70] (H-H[Aib]EGS[αMeF]TSDV[αMeS]S[αMeF]LEGEAA[αMeK]E[αMeF]IA[αMeF]VV[αMeK]GK([γGlu-Palmitoyl])-NH2; N-terminus assumed)	74	92	83	≥ 27	≥ 27	≥ 27	≥ 27					
